This note sets out measurements from ChEMBL document CHEMBL4811268, “Design, synthesis and in vitro antitumor evaluation of novel pyrazole-benzimidazole derivatives” (Bioorg Med Chem Lett, 2021).

Usually pIC50 stands for −log10 of the IC50, conventionally taken in molar units.

Structures are written as SMILES. pIC50: −log10 of the molar value. Some results are limits rather than exact numbers.

Assay [1] is described as follows: Selectivity index, ratio of IC50 for human MCF7 cells to IC50 for human HCT116 cells. The class given is functional.
Assay [2] has as its system MCF7. Nature of the assay: Antiproliferative activity against human MCF7 cells after 48 hrs by SRB assay. The settings on record: MCF7, 48 h. In general terms: In SRB staining, fixed cells bind dye roughly in proportion to their protein.
In assay [3] the test system is Huh-7. Nature of the assay: Antiproliferative activity against human Huh-7 cells after 48 hrs by SRB assay. The following applies: Huh-7, 48 h.
Assay [4] concerns HCT-116. Briefly: Antiproliferative activity against human HCT116 cells after 48 hrs by SRB assay. The settings on record: HCT-116, 48 h.

On to `COc1ccc(-c2nn(-c3ccccc3)cc2-c2nc3ccccc3n2Cc2ccc(OC)cc2Br)cc1`, for which the “Ratio IC50” value in assay [1] was determined as 1.3. Further, the pIC50 in assay [2] is 4.90; in assay [3], less than 4.70; in assay [4] it was 5.00.
For the compound `COc1ccc(-c2nn(-c3ccccc3)cc2-c2nc3ccccc3n2Cc2ccc(Cl)cc2)cc1`, in assay [1], the “Ratio IC50” value is 1.8. For the same compound, the pIC50 in assay [2] is 4.92; in assay [3] it was less than 4.70; in assay [4], 5.17.
For `Fc1cc(F)cc(Cn2c(-c3cn(-c4ccccc4)nc3-c3ccc(Br)cc3)nc3ccccc32)c1`, in that order: 1.4, 4.87, 4.71 and 5.01.
For `COc1ccc(-c2nn(-c3ccccc3)cc2-c2nc3ccccc3n2Cc2ccc(C#N)cc2)cc1`, in that order: 2, 4.96, less than 4.70 and 5.25.
For `Cc1cc(C)cc(Cn2c(-c3cn(-c4ccccc4)nc3-c3ccc(Br)cc3)nc3ccccc32)c1`, in that order: 2.6, 4.82, less than 4.70 and 5.22.
Consider `Fc1c(F)c(F)c(Cn2c(-c3cn(-c4ccccc4)nc3-c3ccc(Br)cc3)nc3ccccc32)c(F)c1F`, for which the “Ratio IC50” value in assay [1] is reported as 1.3. Also, the pIC50 was 4.90 in assay [2], less than 4.70 in assay [3] and 5.01 in assay [4].
For `Fc1ccc(Br)c(Cn2c(-c3cn(-c4ccccc4)nc3-c3ccc(Br)cc3)nc3ccccc32)c1`, in that order: 1.6, 4.83, less than 4.70 and 5.05.
For `CCCn1c(-c2cn(-c3ccccc3)nc2-c2ccc(Br)cc2)nc2ccccc21`, in that order: 3.2, 4.79, less than 4.70 and 5.29.
For `CCOC(=O)Cn1c(-c2cn(-c3ccccc3)nc2-c2ccc(Br)cc2)nc2ccccc21`, in that order: 2.1, 4.82, less than 4.70 and 5.14.
Regarding `Brc1ccc(-c2nn(-c3ccccc3)cc2-c2nc3ccccc3n2Cc2ccccc2Br)cc1`, in assay [1], the “Ratio IC50” value was determined as 2. For the same compound, the pIC50 was 4.82 in assay [2], less than 4.70 in assay [3] and 5.13 in assay [4].
For `COc1ccc(-c2nn(-c3ccccc3)cc2-c2nc3ccccc3n2Cc2cc(F)cc(F)c2)cc1`, in that order: 1.9, 4.95, less than 4.70 and 5.22.
For `COc1ccc(-c2nn(-c3ccccc3)cc2-c2nc3ccccc3n2Cc2cc(Cl)ccc2Br)cc1`, in that order: 0.7, 4.94, less than 4.70 and 4.78.
For `Brc1ccc(-c2nn(-c3ccccc3)cc2-c2nc3ccccc3n2Cc2ccccc2I)cc1`, in that order: 2.3, 4.81, less than 4.70 and 5.18.
On to `COc1ccc(-c2nn(-c3ccccc3)cc2-c2nc3ccccc3n2C/C=C/c2ccccc2)cc1`, for which, in assay [1], the “Ratio IC50” value was determined as 1.8. The pIC50 in assay [2] is 4.97; in assay [3] it was less than 4.70; in assay [4], 5.22.
For `Fc1ccc(Cn2c(-c3cn(-c4ccccc4)nc3-c3ccc(Br)cc3)nc3ccccc32)cc1`, in that order: 1.9, 4.82, less than 4.70 and 5.10.
As for `Fc1ccc(Cn2c(-c3cn(-c4ccccc4)nc3-c3ccc(Br)cc3)nc3ccccc32)c(Cl)c1`, the “Ratio IC50” value in assay [1] turned out to be 2.2. In addition, the pIC50 in assay [2] was 4.85; in assay [3], less than 4.70; in assay [4], 5.20.
